Assay results: patent US20220204491A1, “FXR (NR1H4) MODULATING COMPOUNDS” (Gilead Sciences, Inc., priority 2019, published 2022)
Like-named read-outs stand apart in the source and are kept apart here.

Legend:
Farnesoid X receptor = experiment: In vivo pharmacodynamics in cynomolgus monkey: plasma FGF19 after oral versus IV dosing; conditions: for FGF19 levels compared to baseline: IV administration; for FGF19 levels compared to baseline / plasma FGF19 over the dosing interval compared to baseline: cynomolgus monkey; for FGF19 AUClast: male cynomolgus monkey, plasma, 24 hour period; for Ratio AUClast to FG19/GS: FGF19 AUClast over drug AUClast; for PO/IV: PO ratio (FGF19/GS AUClast) over IV ratio; for plasma FGF19 over the dosing interval compared to baseline: oral administration
Description: In vivo pharmacodynamics of Formula (I) of Example 1, Comparative Example 1, and Comparative Example 2 were determined as follows.
(§1) Oral solution doses of Formula (I) (Example 1) were formulated at concentrations of 1 mg/mL in aqueous suspensions of 1% sodium laurel sulfate (SLS), 1% ethanol, and 98% water at pH 2. Oral suspension doses of Comparative Example 1, and Comparative Example 2 were formulated at concentrations of 2.5 mg/mL in 1% hydyroxypropyl methylcellulose (HPMC), 0.5% Tween 80, and 98.5% water.
(§2) Intravenous doses of compounds of Formula (I) (Example 1), Comparative Example 1, and Comparative Example 2 were formulated at concentrations of 0.5 mg/mL in a vehicle including 5% DMSO, 15% NMP, 60% PEG 300 and water with 1.1 equivalents of NaOH.
(§3) Each dosing group consisted of three to six male Cynomolgus monkeys. At dosing, the animals weighed between 2.4 and 4.4 kg.
(§4) The oral test articles were administered to the monkeys via oral gavage at 2 mL/kg or nasogastric untubation at 5 mL/kg for a dose of 5 mg/kg. The intravenous test articles were administered as an approximately 30-minute infusion via an indwelling catheter in a saphenous or cephalic vein at approximately 2 mL/kg for a dose of 1 mg/kg.
(§5) Venous blood samples were taken at specified time points after dosing from each animal. The blood samples were collected and transferred into tubes containing potassium (K2) EDTA anticoagulant.
The FGF19 ELISA assay kit from BioVendor (product number RD191107200R) was used to determine FGF19 concentrations in the collected blood samples.
(§6) Activation of the Farnesoid X receptor in the distal small intestine as well as systemically in organs such as the liver, directly causes the expression and secretion of FGF19. Plasma FGF levels were evaluated as a pharmacodynamics marker of FXR activation in male cynomolgus monkeys following administration of oral and intravenous administration of doses of Example 1, Comparative Example 1, or Comparative Example 2. The difference between levels of FGF19 following oral administration (PO) versus intravenous administration (IV) were used to compare the degree of intestinal FXR agonism (via analysis of PO data) and systemic FXR agonism (via analysis of IV data) for each compound administered. Plasma levels of drug and FGF19 were measured at various time points over a 24 hour period to generate pharmacokinetic and pharmacodynamics curves.

[1] = Drug concentration in plasma of cynomolgus monkey (LC/MS/MS); assay type: in vivo; conditions: male cynomolgus monkey, read-out: GS-AUClast
Description: as §1, §2, §3, §4, §5
For analysis on an API 5000 LC/MS/MS system, an aliquot of 50 μL of each plasma sample was treated with 200 μL of acetonitrile (ACN) containing internal standard. The above solution was centrifuged at 5000 RPM for 10 minutes and 50 μL of supernatant was transferred to a clean 96-well plate, followed by the addition of 200 μL of water. An aliquot of 10 μL was injected to the API 5000 LC/MS/MS system.
For analysis on an Applied Biosystems API 5500 LC/MS/MS system, an aliquot of 20 μL of each plasma sample was treated with 120 μL acetonitrile (ACN) containing internal standard. The above solution was centrifuged and 100 μL of supernatant was transferred to a clean 96-well plate, followed by the addition of 100 μL of water. An aliquot of 7-10 μL was injected to the API 5500 LC/MS/MS system.
A Zorbax Extend C18 HPLC column (50×2.1 mm, 3.5 μm) from Agilent Technologies (Part #735700-902) (Comparative Example 1, and Comparative Example 2) or a Waters BEH C18 column (50×2.1 mm, 1.7 μm) (Example 1) was used. For the Zorbax Extend C18 HPLC column, mobile phase A contained an aqueous solution of 1% acetonitrile in 10 mM ammonium formate adjusted to pH 3.0 with formic acid and mobile phase B contained and 10% 10 mM ammonium formate in acetonitrile adjusted to pH 4.6 with formic acid. For the Waters BEH C18 column, mobile phase A contained 95% water, 5% acetonitrile, and 0.1% formic acid and mobile phase B contained 50% methanol, 50% acetonitrile, and 0.1% formic acid. A Thermo Aria multiplexer with two identical Agilent 1200 series binary pumps (P/N G1312A Bin Pump) was used for elution and separation. The elution programs used are set forth in the following Table 2 for the Zorbax Extend C18 HPLC and Table 3 for the Waters BEH C18 column.
An API 5000 triple quadrupole mass spectrometer from AB Sciex, Foster City, Calif. was used in multiple reaction monitoring mode to quantify the compounds.
as §6, with “Plasma levels of drug and FGF19 were measured at various time points over a 24 hour period to generate pharmacokinetic and pharmacodynamics curves.” left out

| AUC(0-t) ([1]; IV infusion, 1 mg/kg) [µM·h] | AUC(0-t) ([1]; PO, 5 mg/kg) [µM·h] | SMILES | FGF19 levels compared to baseline (Farnesoid X receptor; 1 mg/kg) | FGF19 AUClast (Farnesoid X receptor; IV infusion, 1 mg/kg) [pg·h/mL] | Ratio AUClast to FG19/GS (Farnesoid X receptor; IV, 1 mg/kg) | PO/IV (Farnesoid X receptor) | FGF19 AUClast (Farnesoid X receptor; PO, 5 mg/kg) [pg·h/mL] | Ratio AUClast to FG19/GS (Farnesoid X receptor; PO, 5 mg/kg) | plasma FGF19 over the dosing interval compared to baseline (Farnesoid X receptor; 5 mg/kg) |
| --- | --- | --- | --- | --- | --- | --- | --- | --- | --- |
| 1.63 | 1.67 | O=C(O)c1cnc(N2CC(O)(c3ccc(OCc4c(-c5c(Cl)cc(F)cc5Cl)noc4C4CC4)cc3Cl)C2)c(F)c1 [Comparative Example 1, 6-(3-(2-chloro-4-((5-cyclopropyl-3-(2,6-dichloro-4-fluorophenyl)isoxazol-4-yl)methoxy)phenyl)-3-hydroxyazetidin-1-yl)-5-fluoronicotinic acid] | increased FGF19 levels | 22798 ± 2387 | 14 | 1.37 | 32085 ± 4252 | 19.2 | caused increases in plasma FGF19 |
| 3.14 | 0.643 | O=C(O)c1ccc(N2CC(O)(c3ccc(OCc4c(-c5c(Cl)cccc5Cl)noc4C4CC4)cc3Cl)C2)nc1 [Comparative Example 2] | increased FGF19 levels | 10757 ± 2551 | 3.4 | 8.2 | 18193 ± 7134 | 28 | caused increases in plasma FGF19 |
| 3.15 | 2.25 | O=C(O)c1ccc(N2CC(O)(c3ccc(OCc4c(-c5c(Cl)cc(F)cc5Cl)noc4C4CC4)cc3Cl)C2)nc1 [Example 1, 6-(3-(2-chloro-4-((5-cyclopropyl-3-(2,6-dichloro-4-fluorophenyl)isoxazol-4-yl)methoxy)phenyl)-3-hydroxyazetidin-1-yl)nicotinic acid] | did not cause in increase in FGF19 | 5144 ± 2199 | 1.6 | 7.8 | 28153 ± 11539 | 12.5 | caused increases in plasma FGF19 |
